From ChEMBL document CHEMBL2203090, “Synthesis and Evaluation of 5-Fluoro-2-aryloxazolo[5,4-b]pyridines as β-Amyloid PET Ligands and Identification of MK-3328” (ACS Med Chem Lett, 2011) come the findings set out here.

Active and inactive are the calls of the source. The rule behind the calls is not given here. Where only a bound is given, the exact number is not on record here.

The test system of data set [1] is P-gp (Homo sapiens). Description: Activity at human P-gp expressed in pig LLC-PK1 cells assessed as passive apparent permeability.
Data set [2] relates to P-gp. Description: Activity at human P-gp expressed in LLC-PK1 cells assessed as efflux ratio of apparent permeability. In kind it is ADME, cell-based.
Data set [3] concerns the target T1, Amyloid-beta precursor protein (Homo sapiens, UniProt P05067). Description: Binding affinity to human amyloid beta plaque.
Data set [4] can be described thus: Drug uptake in rhesus monkey cerebellum after 90 mins. The format is ADME, tissue-based, Macaca mulatta. The following applies: in vivo, 1.5 h.
Data set [5] can be described thus: Drug uptake in rhesus monkey cortex up to 90 mins. In kind it is ADME, tissue-based, Macaca mulatta. The following applies: in vivo, 1.5 h.
Data set [6] in a line: Drug uptake in rhesus monkey cerebellum up to 90 mins. In kind it is ADME, tissue-based, Macaca mulatta. To be noted: in vivo, 1.5 h.
The subject of data set [7] is Brain. Description: Drug uptake in rhesus monkey brain white matter up to 90 mins. In kind it is ADME, tissue-based, Macaca mulatta. The following applies: in vivo, 1.5 h.
A short description of data set [8]: Drug uptake in rhesus monkey cortex after 90 mins. The following applies: in vivo, 1.5 h. The format is ADME, tissue-based, Macaca mulatta.
The target of data set [9] is T1, Amyloid-beta precursor protein. Description: […] amyloid beta plaque in cortex homogenate isolated from Alzheimer disease patient after 90 mins by scintillation counting. To be noted: for Bmax: tested as the 3H-labelled form. The format is tissue-based. On the technique in general: Displacement assays read how much labelled ligand stays bound in the presence of the test substance.

For data set [10] the target is unchanged. Description: […] amyloid beta plaque in cortex homogenate isolated from Alzheimer disease patient at 6.4 nM after 90 mins by scintillation counting in presence of 5-Fluoro-2-(1-methyl-1H-indol-5-yl)-oxazolo[5,4-b]pyridine. The following applies: tested as the 3H-labelled form. The format is tissue-based.
Data set [11] shares this target. Description: Ratio of Bmax to Kd for amyloid beta plaque in cortex homogenate isolated from Alzheimer disease patient. The following applies: tested as the 3H-labelled form. In kind it is tissue-based.
Data set [12] has the same target. Description: Binding affinity to amyloid beta plaque in cortex homogenate isolated from Alzheimer disease patient at 5 nM after 90 mins by autoradiography. The format is tissue-based. The following applies: tested as the 3H-labelled form.
Data set [13] shares this target. Description: […] amyloid beta plaque in cortex homogenate isolated from Alzheimer disease patient at 4.2 nM after 90 mins by scintillation counting in presence of [4-(5-Fluoro-oxazolo[5,4-b]pyridin-2-yl)-phenyl]-dimethyl-amine. To be noted: tested as the 3H-labelled form. The format is tissue-based.
Data set [14] has the same target. Description: […] amyloid beta plaque in cortex homogenate isolated from Alzheimer disease patient at 9.6 nM after 90 mins by scintillation counting in presence of 5-Fluoro-2-(1-methyl-1H-pyrrolo[2,3-b]pyridin-5-yl)-oxazolo[5,4-b]pyridine. In kind it is tissue-based. To be noted: tested as the 3H-labelled form.

T1 sequence (P05067 whole entry): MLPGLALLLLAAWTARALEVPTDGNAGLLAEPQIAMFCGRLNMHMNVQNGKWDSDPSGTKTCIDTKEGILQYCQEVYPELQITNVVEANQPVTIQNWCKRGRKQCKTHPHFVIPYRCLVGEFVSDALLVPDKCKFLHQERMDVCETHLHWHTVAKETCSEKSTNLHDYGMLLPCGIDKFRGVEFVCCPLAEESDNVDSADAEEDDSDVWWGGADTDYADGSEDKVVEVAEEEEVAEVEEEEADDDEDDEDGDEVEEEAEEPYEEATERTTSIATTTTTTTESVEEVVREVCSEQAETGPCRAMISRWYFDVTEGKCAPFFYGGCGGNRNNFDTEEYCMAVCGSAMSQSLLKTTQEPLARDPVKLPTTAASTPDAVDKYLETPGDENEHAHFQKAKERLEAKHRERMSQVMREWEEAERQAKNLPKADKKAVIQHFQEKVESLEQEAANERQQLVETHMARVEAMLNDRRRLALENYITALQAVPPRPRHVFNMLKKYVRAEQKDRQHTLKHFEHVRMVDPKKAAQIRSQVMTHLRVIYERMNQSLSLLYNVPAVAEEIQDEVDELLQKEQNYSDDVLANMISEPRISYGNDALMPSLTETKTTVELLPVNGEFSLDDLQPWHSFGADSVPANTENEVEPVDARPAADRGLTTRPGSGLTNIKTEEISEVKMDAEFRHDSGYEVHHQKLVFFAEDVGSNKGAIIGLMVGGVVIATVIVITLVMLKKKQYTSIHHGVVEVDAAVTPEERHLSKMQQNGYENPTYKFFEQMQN

Broadly, the Papp is a coefficient for how fast a substance crosses the barrier. What is called efflux ratio is a quotient of directional permeabilities that is used to spot active efflux. The IC50 is the concentration needed to halve the response being measured. As to `CNc1ccc(-c2nc3ccc(F)nc3o2)cc1`, the Papp in data set [1] is above 20 ×10⁻⁶ cm/s. In addition, in data set [2], the efflux ratio was below 3. The molecule also registered an IC50 in data set [3] of 23.1 nM.

Regarding `Cn1ccc2cc(-c3nc4ccc([18F])nc4o3)cnc21`, the Drug uptake entry in data set [4], in data set [7] and in data set [8] was “Not Active” each time. Further, the values for the SUV in data set [5] and in [6] were 2.7 and 3, respectively.

Regarding `Cn1ncc2cc(-c3nc4ccc(F)nc4o3)cnc21`, the Papp in data set [1] is above 20 ×10⁻⁶ cm/s. Moreover, the efflux ratio in [2] is below 3. In addition, the IC50 in [3] is 30.2 nM.

`Fc1ccc2nc(-c3ccc4ncsc4c3)oc2n1`: the Papp in data set [1] is above 20 ×10⁻⁶ cm/s. In addition, in data set [2], the efflux ratio was below 3. The IC50 in data set [3] was determined as 35.8 nM.

For the molecule `Cn1ccc2cc(-c3nc4ccc(F)nc4o3)ncc21`, the Papp in [1] is above 20 ×10⁻⁶ cm/s. For the same molecule, the efflux ratio in [2] is below 3. The same molecule returned an IC50 in data set [3] above 1000 nM.

As to `COc1ccc(-c2nc3ccc(F)nc3o2)cc1`, the Papp in [1] is above 20 ×10⁻⁶ cm/s. Besides, the efflux ratio in data set [2] is below 3. In data set [3], this molecule returned an IC50 of 32.5 nM.

The term Kd denotes the concentration at which binding is half-saturated. `[3H]C([3H])([3H])n1ccc2cc(-c3nc4ccc(F)nc4o3)ccc21` had a Kd in data set [9] of 6.4 nM.

For the molecule `Cn1ncc2cc(-c3nc4ccc(F)nc4o3)ccc21`, the Papp in [1] was above 20 ×10⁻⁶ cm/s. The efflux ratio in [2] was below 3. The IC50 in [3] turned out to be 48.7 nM.

Consider `Cn1ccc2cc(-c3nc4ccc(F)nc4o3)ccc21`, for which, in data set [1], the Papp is above 20 ×10⁻⁶ cm/s. The Bmax in data set [9] was found to be 1450 nM. Moreover, the Activity in [10] is 50%. In data set [2], the efflux ratio is below 3. This molecule registered a half-maximal inhibitory concentration (IC50) in data set [3] of 8 nM. Also, the Ratio in [11] came to 232. Further, the outcome in [12] was inactive.

With `CN(C)c1ccc(-c2nc3ccc(F)nc3o2)cn1`, the apparent permeability coefficient (Papp) in data set [1] is above 20 ×10⁻⁶ cm/s. The efflux ratio in data set [2] is below 3. In data set [3], this molecule displayed an IC50 of 41.8 nM.

Consider `CNc1ccc(-c2nc3ccc(F)nc3o2)cn1`, for which the Papp in [1] is above 20 ×10⁻⁶ cm/s. The efflux ratio in [2] was below 3. Besides, in [3], the 50% inhibitory concentration (IC50) was found to be 102 nM.

In the case of `[3H]C([3H])([3H])N(C)c1ccc(-c2nc3ccc(F)nc3o2)cc1`, the Kd in [9] came to 4.5 nM.

As for `Fc1ccc2nc(-c3ccc4[nH]ccc4c3)oc2n1`, the Papp in data set [1] is above 20 ×10⁻⁶ cm/s. For the same molecule, the efflux ratio in data set [2] is below 3. Besides, in data set [3], the IC50 turned out to be 13.8 nM.

For `Fc1ccc2nc(-c3cnc4[nH]ccc4c3)oc2n1`, the Papp in data set [1] is above 20 ×10⁻⁶ cm/s. Also, the efflux ratio in [2] is below 3. In addition, the IC50 in data set [3] was 25.7 nM.

As for `[3H]C([3H])([3H])n1ccc2cc(-c3nc4ccc(F)nc4o3)cnc21`, the Kd in data set [9] turned out to be 9.6 nM.

As for `CN(C)c1ccc(-c2nc3ccc(F)nc3o2)cc1`, the Papp in data set [1] is above 20 ×10⁻⁶ cm/s. The molecule also had a Bmax in data set [9] of 2090 nM. For the same molecule, in [2], the efflux ratio is below 3. Besides, in [13], the Activity was 50%. Also, in [3], the IC50 was 4 nM. Moreover, in data set [11], the Ratio amounted to 464. Moreover, the result in [12] was Active.

As to `CN1CCc2cc(-c3nc4ccc(F)nc4o3)cnc21`, in data set [1], the Papp was above 20 ×10⁻⁶ cm/s. In addition, the efflux ratio in [2] is below 3. In data set [3], this molecule yielded an IC50 of 47 nM.

Turning to `Cn1ccc2cc(-c3nc4ccc(F)nc4o3)cnc21`, the Activity in data set [14] is 35%. In addition, the Papp in data set [1] is above 20 ×10⁻⁶ cm/s. Further, in data set [9], the Bmax came out at 1100 nM. Moreover, the efflux ratio in [2] was below 3. For the same molecule, the IC50 in data set [3] amounted to 10.5 nM. Moreover, the Ratio in data set [11] was found to be 117. Further, the outcome in [12] was Active.

For `Fc1ccc2nc(-c3ccc4cc[nH]c4c3)oc2n1`, the Papp in data set [1] is above 20 ×10⁻⁶ cm/s. Further, the efflux ratio in [2] is below 3. In [3], this molecule came in with an IC50 of 45.3 nM.

As for `Cn1cnc2cc(-c3nc4ccc(F)nc4o3)ccc21`, the Papp in [1] is above 20 ×10⁻⁶ cm/s. In [2], the efflux ratio is below 3. In [3], this molecule displayed an IC50 above 1000 nM.
